The record followed here is patent US9625458B2, “Biosensor” (priority 2002, dated 2017).

Assay [1] deals with T1, E. coli glutamate/aspartate binding protein (YBEJ, SEQ ID NO:3) variant Q123C, fluorophore conjugate (Escherichia coli, UniProt P37902, Q123C).
T1 construct: The underlined methionine is the initiation codon for expression of YBEJ used in the study; initiation methionine (N); Gly-Ser-Gly-(His)n or Gly-Ser-(His)n (C); made in house; host or cells: E. coli BL21-DE3
Description: Fluorimetric titration of fluorophore conjugates. The source says: (§1) Molecular Cloning. […] Amplified products were cloned into one of the protein expression vectors pAED4 (Doering, “Functional and structural studies of a small f-actin binding domain” in Ph.D. thesis, Massachusetts Institute of Technology, 1992); pKK223-3 (Brosius & Holy, Proc. Natl. Acad. Sci. USA 81:6929-6933, 1984); or pET vectors (Studier et al., Meth. Enzymol. 185:60-89, 1990) (Novagen). N-terminal oligonucleotide primers were designed to clone only the processed periplasmic form, deleting the signal sequence. The C-terminal primer was designed to append the sequence Gly-Ser-Gly-(His)n or Gly-Ser-(His)n, where n=5, 6, or 10. Two tandem stop codons (TAATGA) follow the last His codon. […] Single amino acid substitutions were generated by overlapping PCR mutagenesis (Ho et al., Gene 77:51-59, 1989). All clones and mutations were confirmed by nucleotide sequencing. In the case of arabinose BP, the single cysteine in the wild type sequence was replaced by alanine to eliminate the possibility of reporter group conjugation to this thiol (Miller et al., J. Biol. Chem. 254:7521-7528, 1979). Additionally the sequence of Fe(III) BP was mutated by substitution of Glu57 with Asp to raise the Kd to a concentration range conveniently measured using Fe(III) citrate.
(§2) Fluorophore conjugation to cysteine-substituted bPBPs. Thiol-reactive fluorophores obtained from Molecular Probes (Eugene, Oreg.) were 5-iodoacetamidofluorescein (fluorescein); N-(1-pyrene) iodoacetamide (pyrene); N,N′-dimethyl-N-(iodoacetyl)-N′-(7-nitrobenz-2-oxa-1,3-diazol-4-yl)ethylenediamide (NBD); N-((2-(iodoacetoxy)ethyl)-N-methyl)amino-7-nitrobenz-2-oxa-1,3-diazole (NBDE); and 6-acryloyl-2-dimethylaminonaphthalene (acrylodan). The styryl and naphthyl dyes JPW4039, JPW4042, and JPW4045 (FIG. 3) were synthesized at the University of Connecticut. All fluorophore conjugation steps were typically carried out at room temperature. To protein at a concentration of 100 μM was added tris-(2-carboxyethyl)phosphine HCl to a five-fold molar excess to reduce intermolecular disulfide bonds. A thiol-reactive fluorophore (20 to 25 mM in acetonitrile or dimethyl sulfoxide) was added in small aliquots to a five-fold molar excess over protein. Conjugation proceeded in the dark at room temperature for 4 hours, or overnight at 4° C. Separation of protein from unreacted fluorophore was achieved by exhaustive dialysis or by size-exclusion chromatography. The efficiency of reporter group attachment was assessed by determination of unreacted thiol with Ellman's reagent (Ellman, Arch. Biochem. Biophys. 74:443-450, 1958) or by measuring the ratio of fluorophore to protein from absorbance spectra of the purified conjugate.
(§3) Fluorimetry. All measurements were conducted with an SLM Aminco-Bowman series 2 fluorimeter, with sample stirring at 25° C. Fluorescence emission spectra were acquired with excitation and emission slit widths of 4 and 8 nm, respectively. Photomultiplier tube potential was maintained between 400 and 800 volts. Protein concentrations were in the range of 50 to 1000 nM. Fluorophore-specific excitation was at the following approximate wavelengths: tryptophan, 290 nm; acrylodan, 390 nm; fluorescein, 485 nm; pyrene, 340 nm; NBD and NBDE, 490 nm; JPW4039, 485 nm; JPW4042, 470 nm; JPW4045, 470 nm.
(§4) Corrections were made for dilution of the protein and for background signal from buffer. Binding curves were fit to binding isotherms using equation 3 or 4, as appropriate.
(§5) Analyte affinity measurements. […] The emission wavelength monitored was that of maximum difference in intensity between the ligand-free and bound states. For each conjugate, fluorescence intensiometric observations were fit to a hyperbolic binding isotherm for a two-state model (Marvin et al., Proc. Natl. Acad. Sci. USA 94:4366-4371, 1997): […]

The target of assay [2] is T2, E. coli glutamate/aspartate binding protein (YBEJ, SEQ ID NO:3) variant T129C, fluorophore conjugate (Escherichia coli, UniProt P37902, T129C).
T2 construct: The underlined methionine is the initiation codon for expression of YBEJ used in the study; initiation methionine (N); Gly-Ser-Gly-(His)n or Gly-Ser-(His)n (C); made in house; host or cells: E. coli BL21-DE3
T2 sequence (P37902 other isoform, or with tags, fused parts or gaps T129C): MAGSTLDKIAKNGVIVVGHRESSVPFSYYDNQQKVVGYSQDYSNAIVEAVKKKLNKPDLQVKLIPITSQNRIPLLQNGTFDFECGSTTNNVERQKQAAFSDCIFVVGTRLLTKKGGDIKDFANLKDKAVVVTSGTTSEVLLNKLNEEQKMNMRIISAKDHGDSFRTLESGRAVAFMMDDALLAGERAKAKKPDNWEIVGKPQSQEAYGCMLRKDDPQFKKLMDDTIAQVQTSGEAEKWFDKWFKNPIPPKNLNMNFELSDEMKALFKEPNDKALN
Description: Fluorimetric titration of fluorophore conjugates.
Description: as §1, §2, §3, §4, §5

The target in assay [3] is E. coli glucose binding protein variant W183C, fluorophore conjugate (Escherichia coli, UniProt P0AEE5, W206C). Description: biochemical. On the procedure: The normal serum glucose range (euglycemia) of 4 to 6 mM is delimited by vertical lines.
Sequence of E. coli glucose binding protein variant W183C, fluorophore conjugate (P0AEE5 24-332 W206C limits assumed): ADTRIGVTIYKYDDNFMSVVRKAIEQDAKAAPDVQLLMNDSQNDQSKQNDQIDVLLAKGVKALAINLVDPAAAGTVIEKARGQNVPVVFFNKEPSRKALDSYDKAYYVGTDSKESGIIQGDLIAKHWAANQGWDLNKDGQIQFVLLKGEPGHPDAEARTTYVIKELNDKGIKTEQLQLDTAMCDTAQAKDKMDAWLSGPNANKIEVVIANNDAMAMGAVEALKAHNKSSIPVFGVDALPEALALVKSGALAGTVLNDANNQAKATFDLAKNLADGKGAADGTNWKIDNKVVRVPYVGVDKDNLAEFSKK
as §1, §2, §3, §4
Analyte affinity measurements.

Assay [4] can be described thus: Fluorescence emission spectra without and with saturating ligand (wavelength shift, ΔIstd, ΔRmax). More on the design: key to ΔIstd: intensity change at λstd normalized to average intensity; key to ΔRmax: ratio change of two emission band areas, unbound vs saturated. Particulars: unbound vs ligand-saturated; for ΔIstd: standard intensity change; for ΔRmax: standard ratiometric change. On the procedure: as §3
Assessment of fluorescent biosensor function. Fluorescence emission spectra of bPBP-fluorophore conjugates were recorded in the absence and presence of saturating ligand concentrations. Spectral changes were characterized by four parameters: wavelength shift (the difference between the wavelengths of emission maximum in the unbound and ligand-saturated states), direction of intensity change (increase or decrease in intensity at the wavelengths of maximum emission in the two states), standard intensity change (ΔIstd), and standard ratiometric change (ΔR). ΔIstd is defined as the normalized intensity change relative to the average intensity, determined at the wavelength mid-point between the two emission maxima:
[formula] where λstd=(λmax, unbound+λmax, saturated)/2 and I1, I2 are the fluorescence intensities at λstd of each spectrum respectively (FIG. 4A). ΔR is defined in terms of two emission bands, A1 ([λ1, λ2]) and A2 ([λ3, λ4]) (FIG. 4B):
[formula] where ^∘A1, […] the areas in the absence of ligand, and ^∞A1, ^∞A2 the areas in the presence of saturating ligand. A computer program was used to enumerate ΔR for all possible pairs of wavelength bands in the two spectra, to identify the optimal sensing condition, defined as the maximum value of ΔR. Adjustable parameters of the algorithm, and their values used for ΔRmax quantities reported here, are: step size (2 nm), step width (10 nm), minimum integration area limit (fraction of total: 0.1), and maximum integration area limit (fraction of total: 1).

T1 sequence (P37902 other isoform, or with tags, fused parts or gaps Q123C): as the sequence (P37902 other isoform, or with tags, fused parts or gaps T129C) above, with Q96C, C102T counted along it

As for `NC(=O)C[C@H](N)C(=O)O` [asparagine], the values for the dissociation constant (Kd) in assay [1] and in assay [2] (T129C-NBD) were 96 µM and 5.4 µM, respectively.
Turning to `OC[C@H]1OC(O)[C@H](O)[C@@H](O)[C@@H]1O` (stereo partly shown) [glucose], the Kd is 5.98 mM in assay [3] (Kd, Acrylodan conjugate, endosteric site); 17.6 mM in assay [3] (Kd, Fluorescein conjugate, endosteric site); ~10.4 mM in assay [3] (appKd, W183C-acrylodan, ratiometric, F450-459/F486-495); ~5 mM in assay [3] (appKd, W183C-acrylodan, ratiometric, F450-459/F550-559); ~17.4 mM in assay [3] (appKd, W183C-acrylodan, ratiometric, F472-481/F450-459); 5.98 mM in assay [3] (dissociation constant, W183C-acrylodan).
`NC(=O)CC[C@H](N)C(=O)O` [glutamine]: the Kd is 49 µM in assay [1], 23 µM in assay [2] (T129C-JPW4039) and 12.1 µM in assay [2] (T129C-NBD).
As to sulfate BP L65C Acrylodan, in assay [4], the ΔIstd came out at 0.39 and the ΔRmax turned out to be 2.95.
Taken in the same sequence, the figures for sulfate BP L65C Fluorescein were 0.39 and 1.31.
Taken in the same sequence, the figures for sulfate BP L65C JPW4042 were 0.40 and 1.82.
Taken in the same sequence, the figures for sulfate BP L65C NBD were 0.02 and 0.61.
For the molecule sulfate BP L65C Pyrene, in assay [4], the ΔIstd is 0.13 and the ΔRmax stood at 1.20.
For sulfate BP Q294C Acrylodan, in that order: 0.04 and 0.13.
As for sulfate BP Q294C Fluorescein, in assay [4], the ΔIstd is on record as 0.00 and the ΔRmax worked out at 0.11.
For sulfate BP Q294C JPW4042, in assay [4], the ΔIstd was 0.27 and the ΔRmax stood at 1.17.
As for sulfate BP Q294C NBD, in assay [4], the ΔIstd is recorded as 0.00 and the ΔRmax is 0.02.
For sulfate BP Q294C Pyrene, in that order: 0.01 and 0.08.
Taken in the same sequence, the figures for sulfate BP R134C Acrylodan were 0.18 and 2.26.
On to sulfate BP R134C Fluorescein, for which, in assay [4], the ΔIstd is recorded as 0.01 and the ΔRmax came to 0.02.
Taken in the same sequence, the figures for sulfate BP R134C JPW4039 were 0.08 and 2.02.
Taken in the same sequence, the figures for sulfate BP R134C JPW4042 were 0.52 and 0.96.
Taken in the same sequence, the figures for sulfate BP R134C NBD were 0.58 and 0.37.
Regarding sulfate BP R134C Pyrene, in assay [4], the ΔIstd is 0.15 and the ΔRmax is 1.30.
With sulfate BP W290C Acrylodan, in assay [4], the ΔIstd is on record as 0.04 and the ΔRmax came to 0.03.
Take sulfate BP W290C Fluorescein: in assay [4], the ΔIstd came to 0.04 and the ΔRmax came to 0.09.
For sulfate BP W290C JPW4042, in assay [4], the ΔIstd was 0.43 and the ΔRmax was determined as 0.89.
Taken in the same sequence, the figures for sulfate BP W290C NBD were 0.06 and 0.11.
Taken in the same sequence, the figures for sulfate BP W290C Pyrene were 0.16 and 0.37.
Taken in the same sequence, the figures for sulfate BP Y67C Acrylodan were 0.00 and 0.12.
In the case of sulfate BP Y67C Fluorescein, in assay [4], the ΔIstd is given as 0.01 and the ΔRmax was determined as 0.04.
Taken in the same sequence, the figures for sulfate BP Y67C NBD were 0.13 and 0.20.
Turning to sulfate BP Y67C Pyrene, in assay [4], the ΔIstd amounted to 0.02 and the ΔRmax was determined as 0.48.

Usually Kd stands for the equilibrium constant for the complex coming apart.
